Values after ≈ are worked out from the molar mass of the structure shown. Active and inactive are the calls of the source. The calls are words filed in the database; no cut-off is given here. Where a SMILES comes first, the peptide text is derived from it. The star is where a group is joined. Lauroyl = CCCCCCCCCCCC(=O)*; Decanoyl = CCCCCCCCCC(=O)*; Spermine = NCCCNCCCCNCCCN*
Key:
Staphylococcus aureus [1] = test: Additive antibacterial activity against MDR-methicillin-resistant Staphylococcus aureus ATCC BAA-44 assessed as tetracycline MIC by checkerboard assay; assay type: functional
[2] = system: Staphylococcus epidermidis; test: Antibacterial activity against methicillin-resistant Staphylococcus epidermidis ATCC 51625 assessed as reduction in bacterial growth measured after 18 hrs by broth microdilution method; assay type: functional
Escherichia coli [3] = test: Bactericidal activity against Escherichia coli ATCC 25922 assessed as log reduction of bacterial growth at 5XMIC incubated for 2 hrs followed by plating on MHII agar pate for 24 hrs; assay type: functional; conditions: time 26 hrs
Erythrocyte = test: Hemolytic activity against human RBC assessed as hemolysis upto 100 uM incubated for 1 hr by ELISA plate reader analysis; assay type: toxicity, cell-based
[4] = target: T1, Bacterial 70S ribosome (Bacteria) (UniProt P0A7V0+P60723+P0AG67+P0A7R5+P0A7R9+P0A7S3+P0A7S9+P0AG59+P0ADZ4+P0A7T3+P0AG63+P0A7T7+P0A7U3+P0A7U7+P68679+P0A7V3+P0A7V8+P0A7W1+P02358+P02359+P0A7W7+P0A7X3+P0A7J3+P0A7J7+P0AA10+P0ADY3+P02413+P0ADY7+P0AG44+P0C018+P0A7K6+P0A7L0+P0A7L3+P0AG48+P61175+P0ADZ0+P60624+P68919+P0A7L8+P0A7M2+P0A7M6+P60422+P0AG51+P0A7N1+P0A7M9+P0A7N4+P0A7N9+P0A7P5+P0A7Q1+Q2EEQ2+P0A7Q6+P60438+P62399+P0AG55+P0A7K2); test: Inhibition of 70S ribosome-mediated protein synthesis in Escherichia coli at 5XMIC incubated for 1 hr by renilla luciferase based luminescence assay; assay type: subcellular
Staphylococcus aureus [5] = test: In vivo antibacterial activity against Staphylococcus aureus ATCC 25923 infected in BALB/c mouse model assessed as reduction of bacterial load in kidney at 5 mg/kg, ip administered as single dose measured after 24 hrs by colony counting based analysis (reference value: 2X10^4 CFU); assay type: functional
Staphylococcus aureus [6] = test: Additive antibacterial activity against MDR-methicillin-resistant Staphylococcus aureus ATCC BAA-44 assessed as fractional inhibitory concentration index in presence of tetracycline by checkerboard assay; assay type: functional
Staphylococcus aureus [7] = test: In vivo antibacterial activity against Staphylococcus aureus ATCC 25923 infected in BALB/c mouse model assessed as reduction of bacterial load in liver at 5 mg/kg, ip administered as single dose measured after 24 hrs by colony counting based analysis (reference value: 8.1X10^4 CFU); assay type: functional
Staphylococcus aureus [8] = test: Antibacterial activity against MDR-methicillin-resistant Staphylococcus aureus ATCC BAA-44 assessed as reduction in bacterial growth measured after 18 hrs by broth microdilution method; assay type: functional
Escherichia coli [9] = test: Antibacterial activity against Escherichia coli ATCC 25922 assessed as reduction in bacterial growth measured after 18 hrs by broth microdilution method; assay type: functional
[10] = target: T1, Bacterial 70S ribosome (Bacteria); test: Inhibition of 70S ribosome-mediated protein synthesis in Escherichia coli at 1XMIC incubated for 1 hr by renilla luciferase based luminescence assay; assay type: subcellular
[11] = Acute toxicity in BALB/c mouse assessed as mouse survival at 10 mg/kg, ip measured for 7 days; assay type: organism-based; conditions: in vivo, time 7 day
Staphylococcus aureus [12] = test: Synergistic antibacterial activity against MDR-methicillin-resistant Staphylococcus aureus ATCC BAA-44 assessed as fold change in neomycin MIC by checkerboard assay; assay type: functional
Escherichia coli [13] = test: Antibacterial activity against Escherichia coli ATCC 25922 assessed as reduction in bacterial growth measured after 18 hrs in presence of 10% v/v human serum in MHB by broth microdilution method; assay type: functional; conditions: ATCC 25922, Serum
[14] = Acute toxicity in BALB/c mouse assessed as effect on locomotor activity at 10 mg/kg, ip measured for 7 days; assay type: organism-based; conditions: in vivo, 168 h, time 7 day
Bacterial 70S ribosome = test: Binding affinity to Escherichia coli MRE600 70S ribosome assessed as inhibition constant preincubated for 90 mins followed by incubation with Rho-C12-PR-Spn for 90 mins by competitive fluorescence binding assay; assay type: subcellular
Staphylococcus aureus [15] = test: Synergistic antibacterial activity against MDR-methicillin-resistant Staphylococcus aureus ATCC BAA-44 assessed as fractional inhibitory concentration index in presence of ampicillin by checkerboard assay; assay type: functional
Cell membrane = test: Disruption of bacterial cell membrane in Escherichia coli ATCC 25922 assessed as proportion of bacteria with damaged cell membrane at 1X MIC incubated for 1 hr by PI staining based flow cytometric analysis (Rvb =0.7%); assay type: subcellular
Escherichia coli [16] = test: Bacteriostatic activity against Escherichia coli ATCC 25922 at 1XMIC incubated for 4 hrs followed by plating on MHII agar pate for 24 hrs; assay type: functional, organism-based; conditions: time 28.0 hrs
Staphylococcus aureus [17] = test: Additive antibacterial activity against MDR-methicillin-resistant Staphylococcus aureus ATCC BAA-44 assessed as gentamicin MIC by checkerboard assay; assay type: functional
Staphylococcus aureus [18] = test: Additive antibacterial activity against MDR-methicillin-resistant Staphylococcus aureus ATCC BAA-44 assessed as fold change in gentamicin MIC by checkerboard assay; assay type: functional
Staphylococcus aureus [19] = test: Synergistic antibacterial activity against MDR-methicillin-resistant Staphylococcus aureus ATCC BAA-44 assessed as neomycin MIC by checkerboard assay; assay type: functional
Staphylococcus aureus [20] = test: Additive antibacterial activity against MDR-methicillin-resistant Staphylococcus aureus ATCC BAA-44 assessed as fold change in tetracycline MIC by checkerboard assay; assay type: functional
Staphylococcus aureus [21] = test: Additive antibacterial activity against MDR-methicillin-resistant Staphylococcus aureus ATCC BAA-44 assessed as rifampicin MIC by checkerboard assay; assay type: functional
Staphylococcus aureus [22] = test: Synergistic antibacterial activity against MDR-methicillin-resistant Staphylococcus aureus ATCC BAA-44 assessed as fractional inhibitory concentration index in presence of neomycin by checkerboard assay; assay type: functional
Escherichia coli [23] = test: Antibacterial activity against Escherichia coli MRE600 assessed as reduction in bacterial growth measured after 18 hrs by broth microdilution method; assay type: functional
[24] = Cytotoxicity against human THP-1 cells assessed as cell viability at 50 uM by MTT assay; assay type: toxicity, cell-based; conditions: read-out: Activity
Staphylococcus aureus [25] = test: Additive antibacterial activity against MDR-methicillin-resistant Staphylococcus aureus ATCC BAA-44 assessed as fractional inhibitory concentration index in presence of gentamicin by checkerboard assay; assay type: functional
Staphylococcus aureus [26] = test: Synergistic antibacterial activity against MDR-methicillin-resistant Staphylococcus aureus ATCC BAA-44 assessed as ampicillin MIC by checkerboard assay; assay type: functional
Staphylococcus aureus [27] = test: Synergistic antibacterial activity against MDR-methicillin-resistant Staphylococcus aureus ATCC BAA-44 assessed as fractional inhibitory concentration index in presence of chloramphenicol by checkerboard assay; assay type: functional
Staphylococcus aureus [28] = test: Synergistic antibacterial activity against MDR-methicillin-resistant Staphylococcus aureus ATCC BAA-44 assessed as fold change in ampicillin MIC by checkerboard assay; assay type: functional
Staphylococcus aureus [29] = test: In vivo antibacterial activity against Staphylococcus aureus ATCC 25923 infected in BALB/c mouse model assessed as reduction of bacterial load in spleen at 5 mg/kg, ip administered as single dose measured after 24 hrs by colony counting based analysis (reference value: 6X10^3 CFU); assay type: functional
Staphylococcus aureus [30] = test: Additive antibacterial activity against MDR-methicillin-resistant Staphylococcus aureus ATCC BAA-44 assessed as fold change in rifampicin MIC by checkerboard assay; assay type: functional

SMILES	MIC (Staphylococcus aureus [1])	MIC [2]	Activity (Escherichia coli [3])	Activity (Erythrocyte)	inhibition [4]	Activity (Staphylococcus aureus [5])	fractional inhibitory concentration index (FICI) (Staphylococcus aureus [6])	Activity (Staphylococcus aureus [7])	MIC (Staphylococcus aureus [8])	MIC (Escherichia coli [9])	inhibition [10]	survival at 168 h [11]	fold change (FC) (Staphylococcus aureus [12])	MIC (Escherichia coli [13])	Activity [14]	Ki (Bacterial 70S ribosome)	fractional inhibitory concentration index (FICI) (Staphylococcus aureus [15])	Activity (Cell membrane)	Activity (Escherichia coli [16])	MIC (Staphylococcus aureus [17])	other results
CCCCCCCCCCCC(=O)N1CCC[C@H]1C(=O)N[C@@H](CCCNC(=N)N)C(=O)N1CCC[C@H]1C(=O)N[C@@H](CCCNC(=N)N)C(=O)N1CCC[C@H]1C(=O)N1CCC[C@H]1C(=O)N[C@@H](CCCNC(=N)N)C(=O)NCCCNCCCCNCCCN (Lauroyl-PRPRPPR-Spermine)	31.2 µg/mL	1.5 µM (≈ 1.86 µg/mL)	>3 log10CFU/ml	Non-Toxic	Active	<4 10^2CFU	0.625	<4 10^2CFU	1.5 µM (≈ 1.86 µg/mL)	3.1 µM (≈ 3.85 µg/mL)	Active	100%	1.6	3.1 µM	Non-Toxic	21.7 nM	0.28	7.09%	Active	1.25 µg/mL	fold change (FC) (Staphylococcus aureus [18]): 1; MIC (Staphylococcus aureus [19]): 7.81 µg/mL; fold change (FC) (Staphylococcus aureus [20]): 2; MIC (Staphylococcus aureus [21]): 0.625 µg/mL; fractional inhibitory concentration index (FICI) (Staphylococcus aureus [22]): 0.312; MIC (Escherichia coli [23]): 3.1 µM (≈ 3.85 µg/mL); viability at 50 µM [24]: 79%; fractional inhibitory concentration index (FICI) (Staphylococcus aureus [25]): 0.745; MIC (Staphylococcus aureus [26]): 3.9 µg/mL; fractional inhibitory concentration index (FICI) (Staphylococcus aureus [27]): 0.5; fold change (FC) (Staphylococcus aureus [28]): 4; Activity (Staphylococcus aureus [29]): <4 10^2CFU; fold change (FC) (Staphylococcus aureus [30]): 2
CCCCCCCCCC(=O)N1CCC[C@H]1C(=O)N[C@@H](CCCNC(=N)N)C(=O)N1CCC[C@H]1C(=O)N[C@@H](CCCNC(=N)N)C(=O)N1CCC[C@H]1C(=O)N1CCC[C@H]1C(=O)N[C@@H](CCCNC(=N)N)C(=O)NCCCNCCCCNCCCN (Decanoyl-PRPRPPR-Spermine)	31.2 µg/mL	3.1 µM (≈ 3.76 µg/mL)	>3 log10CFU/ml	Non-Toxic	Active	<4 10^2CFU	0.625	<4 10^2CFU	3.1 µM (≈ 3.76 µg/mL)	3.1 µM (≈ 3.76 µg/mL)	Active	100%	1.6	6.2 µM	Non-Toxic	33.8 nM	0.313	6.11%	Active	1.25 µg/mL	fold change (FC) (Staphylococcus aureus [18]): 2; MIC (Staphylococcus aureus [19]): 7.81 µg/mL; fold change (FC) (Staphylococcus aureus [20]): 2; MIC (Staphylococcus aureus [21]): 0.625 µg/mL; fractional inhibitory concentration index (FICI) (Staphylococcus aureus [22]): 0.312; MIC (Escherichia coli [23]): 3.1 µM (≈ 3.76 µg/mL); viability at 50 µM [24]: 94%; fractional inhibitory concentration index (FICI) (Staphylococcus aureus [25]): 0.745; MIC (Staphylococcus aureus [26]): 7.81 µg/mL; fractional inhibitory concentration index (FICI) (Staphylococcus aureus [27]): 2; fold change (FC) (Staphylococcus aureus [28]): 2; Activity (Staphylococcus aureus [29]): <4 10^2CFU; fold change (FC) (Staphylococcus aureus [30]): 2
